Experimental data published in patent US4159328A, “Tetrahydro-1,3,5-thiadiazin-4-one derivative” (Nihon Nohyaku Co., Ltd., priority 1977, dated 1979).

Experiments:
Assay type in all cases: in vivo
[1] = test system: cirrus red mite (Panonychus citri McGregor); experiment: Test Example 4: activity to citrus red mite (Rothamstead method); parameters: concentration or dose not given beside the values; conditions: two days after treatment, 25° C.; 2880 min
Protocol: Activity to cirrus red mite (Panonychus citri McGregor).
Testing method: The test was performed by Rothamstead method. A test composition was sprayed by means of a spray gun over grapefruit leaves infested with citrus red mites. After air-drying the grapefruit was left standing in a constant temperature cabinet at 25° C. Two days after the treatment, the number of survived mites was counted to calculate the mortality.

[2] = test system: larvae of brown planthopper (Nilaparvata lugens Stahl); experiment: Test Example 1: insecticidal activity against larvae of brown planthopper; conditions: third-instar larvae, 25° C.
Procedure, shortened: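 Rice seedlings at 1.5-leaf stage were dipped for 30 s in a 400 ppm test composition, air-dried, and infested with third-instar N. lugens larvae. After holding at 25 °C, mortality was scored 5 or 7 days post-treatment from three replicates.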

[3] = test system: larvae of white-backed planthopper (Sogatella furcifera Horvath); experiment: Test Example 2: insecticidal activity against larvae of white-backed planthopper; conditions: 168 h, 400 ppm, first-instar larvae, 25° C., seven days after treatment, read-out: Mortality
Protocol: Insecticidal activity against larvae of white-backed planthopper (Sogatella furcifera Horvath).
Testing method: Five rice seedlings of the 1.5 leaf age were dipped in a test composition of 400 ppm concentration for 30 seconds. After air-drying, the seedlings were placed in a glass tube containing 1 ml of water and infested with five first-instar larvae of white-backed planthopper. The glass tube was left standing in a constant temperature cabinet at 25° C. and seven days after the treatment, dead-and-survival was observed. Mortality was calculated from the results of 3-replication test.

[4] = test system: two-spotted spider mite (Tetranychus urticae Koch); experiment: Test Example 3: activity to two-spotted spider mite
Description: Activity to two-spotted spider mite (Tetranychus urticae Koch).
Testing method: Two-spotted spider mites were set free on the pot-planted soybean in a greenhouse. On the next day, a test composition of 1,000 ppm concentration was sprayed over the soybean by means of a spray gun. Two days or five days after the treatment, dead-and-survival was inspected to calculate the mortality.

[5] = test system: larvae of green rice leafhopper (Nephotettix cincticeps Uhler); experiment: Test Example 5: activity against larvae of green rice leafhopper; conditions: 168 h, 400 ppm, second-instar larvae, 25° C., seven days after treatment, read-out: Mortality
Protocol: Activity against larvae of green rice leafhopper (Nephotettix cincticeps Uhler).
Testing method: Five rice seedlings of the 1.5 leaf age were dipped in a test composition of 400 ppm concentration for 30 seconds. After air-drying, the seedlings were placed in a glass tube containing 1 ml of water and infested with five second-instar larvae of green rice leafhopper. The glass tube was left standing in a constant temperature cabinet at 25° C. Seven days after the treatment, dead-and-survivalwas inspected to calculate the mortality (3-replication test).

[6] = test system: larvae of house mosquito (Culex pipiens pallens Coquillett); experiment: Test Example 6: insecticidal activity to larvae of house mosquito; conditions: 120 h
Protocol: Insecticidal activity to larvae of house mosquito (Culex pipiens pallens Coquillett).
Test method: In a 200-ml beaker, was placed together with a feed 100 ml of a test composition diluted with deionized water to 10 ppm concentration. The test composition was infested with 20 first-instar larvae of house mosquito and the beaker was covered with a sheet of Japanese paper. The beaker was kept in a constant temperature cabinet at 25° C. Five days after the treatment, the dead-and-survival was inspected to calculate the mortality.

[7] = test system: larvae of 28-spotted lady beetle (Epilachna vigintioctopunctana Fabricius); experiment: Test Example 8: insecticidal activity against larvae of 28-spotted lady beetle; conditions: 120 h
Protocol: Insecticidal activity against larvae of 28-spotted lady beetle (Epilachna vigintioctopunctana Fabricius).
Testing method: Leaflets of tomato grown in a greenhouse were dipped in a test composition of 100 ppm concentration for 30 seconds and after that the leaflets were dried by air. In a Petri dish covered on the bottom with a piece of filter paper, were introduced 1 ml of water and three treated tomato leaflets. After having been infested with seven second-instar larvae of 28-spotted lady beetle, the Petri dish was left standing in a constant temperature cabinet at 25° C. Five days after the treatment, the dead-and-survival was inspected to calculate the mortality (2-replication test).

[8] = 48 h, 1,000 ppm, 2 days after treatment
[9] = 120 h, 1,000 ppm, 5 days after treatment

Row | Structure (SMILES) | Mortality [1] [%] | mortality at 400 ppm ([2]; 168 h, 7 days after treatment) [%] | mortality at 400 ppm [3] [%] | mortality at 1000 ppm [4, 8] [%] | mortality at 400 ppm [5] [%] | mortality at 10 ppm [6] [%] | mortality at 400 ppm ([2]; 120 h, 5 days after treatment) [%] | mortality at 1000 ppm [4, 9] [%] | mortality at 400 ppm ([2]; 5 or 7 days after treatment (No. 123 not covered by footnote)) [%] | mortality at 100 ppm [7] [%]
1 | CCCCCCCCN1C(=O)N(c2ccccc2)CSC1=NC(C)CC (centres unmarked) [Compound 161] | 100 |  |  |  |  |  |  |  |  | 
2 | CN1C(=O)N(C(C)(C)C)CSC1=NC(C)(C)C [Compound 37] | 100 | 100 | 100 | 100 | 50 |  |  |  |  | 
3 | CC(C)N=C1SCN(C(C)C)C(=O)N1C [Compound 18, 2-Isopropylimino-3-methyl-5-isopropyl-tetrahydro-1,3,5-thiadiazin-4-one] | 100 | 100 | 100 | 80 | 100 |  |  |  |  | 
4 | CCN1CSC(=NC(C)C)N(C(C)C)C1=O [Compound 8] | 80 | 100 | 100 | 100 | 80 |  |  |  |  | 
5 | CN1C(=O)N(C(C)(C)CC(C)(C)C)CSC1=NC(C)(C)C [Compound 63, 2-t-Butylimino-3-methyl-5-(1,1,3,3-tetramethyl)-butyl-tetrahydro-1,3,5-thiadiazin-4-one] | 50 | 100 | 100 | 80 | 80 |  |  |  |  | 
6 | C=CCN1CSC(=NC)N(C)C1=O [Compound 9] | 50 | 100 | 100 | 80 | 100 |  |  |  |  | 
7 | C=CCN1CSC(=NC(C)C)N(C)C1=O [Compound 10] | 80 | 100 | 100 | 100 | 100 |  |  |  |  | 
8 | Cc1ccc(N2CSC(=NC(C)C)N(C)C2=O)cc1 [Compound 310] | 100 |  |  |  |  | 100 |  |  |  | 
9 | CC(C)CN1CSC(=NC(C)C)N(C(C)C)C1=O [Compound 27] | 100 | 100 | 100 | 80 | 80 |  |  |  |  | 
10 | CN=C1SCN(C(C)(C)C)C(=O)N1c1ccccc1 [Compound 69] | 80 | 100 | 100 | 100 | 100 |  |  |  |  | 
11 | CCC(C)N=C1SCN(C(C)(C)C)C(=O)N1C (centres unmarked) [Compound 35] | 100 | 100 | 100 | 100 | 50 |  |  |  |  | 
12 | CCCCCCN1C(=O)N(c2ccccc2)CSC1=NC(C)C [Compound 153] | 100 |  |  |  | 100 |  |  |  |  | 
13 | CCCCN1CSC(=NC(C)C)N(C)C1=O [Compound 25] | 80 | 100 | 100 | 100 | 100 |  |  |  |  | 
14 | CC(C)N=C1SCN(C(C)(C)C)C(=O)N1C [Compound 33] | 100 | 100 | 100 | 100 | 100 |  |  |  |  | 
15 | CC(C)N=C1SCN(C(C)(C)C)C(=O)N1c1ccccc1 [Compound 75] | 50 | 100 | 100 | 80 | 50 |  |  |  |  | 
16 | CN=C1SCN(C(C)C)C(=O)N1c1ccccc1 [Compound 66, 2-Methylimino-3-phenyl-5-isopropyltetrahydro-1,3,5-thiadiazin-4-one] | 50 | 100 | 100 | 100 | 80 |  |  |  |  | 

Row | Structure (SMILES) | Mortality [1] [%] | mortality at 400 ppm ([2]; 168 h, 7 days after treatment) [%] | mortality at 400 ppm [3] [%] | mortality at 1000 ppm [4, 8] [%] | mortality at 400 ppm [5] [%] | mortality at 10 ppm [6] [%] | mortality at 400 ppm ([2]; 120 h, 5 days after treatment) [%] | mortality at 1000 ppm [4, 9] [%] | mortality at 400 ppm ([2]; 5 or 7 days after treatment (No. 123 not covered by footnote)) [%] | mortality at 100 ppm [7] [%]
17 | CCC(C)N1CSC(=NC(C)C)N(C)C1=O (centres unmarked) [Compound 29] | 100 | 100 | 100 | 100 | 80 |  |  |  |  | 
18 | Cc1ccc(N=C2SCN(C(C)(C)C)C(=O)N2C)cc1 [Compound 72, 2-p-Tolylimino-3-methyl-5-t-butyl-tetrahydro-1,3,5-thiadiazin-4-one] | 80 | 80 | 100 | 100 | 80 |  |  |  |  | 
19 | Cc1ccccc1N=C1SCN(c2ccccc2)C(=O)N1C [Compound 124, 2-(2-Methyl)phenylimino-3-methyl-5-phenyltetrahydro-1,3,5-thiadiazin-4-one] | 100 |  |  |  |  |  |  |  |  | 
20 | CCOc1ccc(N2CSC(=NC(C)(C)C)N(C(C)CC)C2=O)cc1 (centres unmarked) [Compound 368, 2-t-Butylimino-3-s-butyl-5-(4-ethoxyphenyl)tetrahydro-1,3,5-thiadiazin-4-one] | 100 |  |  |  |  |  | 80 | 100 |  | 
21 | CN=C1SCN(C(C)(C)CC(C)(C)C)C(=O)N1c1ccccc1 [Compound 88] | 100 | 100 | 100 | 100 | 80 |  |  |  |  | 
22 | CCN=C1SCN(C(C)C)C(=O)N1CC [Compound 23] | 80 | 100 | 100 | 100 | 80 |  |  |  |  | 
23 | CN1C(=N)SCN(c2ccccc2)C1=O [Compound 123] | 100 |  |  |  |  |  |  |  | 100 | 
24 | CN=C1SCN(c2ccc(C)cc2)C(=O)N1C [Compound 309] | 100 |  |  |  |  |  |  |  |  | 
25 | CC(C)N=C1SCN(C(C)(C)CC(C)(C)C)C(=O)N1C [Compound 59] | 100 | 100 | 100 | 100 | 100 |  |  |  |  | 
26 | CCCCCCN=C1SCN(c2ccc(F)cc2)C(=O)N1CCC [Compound 281] | 100 |  |  |  |  |  |  |  |  | 
27 | CCC(C)N1C(=O)N(c2ccc(Cl)cc2)CSC1=NC(C)(C)C (centres unmarked) [Compound 198] |  |  | 100 |  | 100 | 100 | 100 | 100 |  | 100
28 | CN=C1SCN(c2ccccc2)C(=O)N1C [Compound 115, 2-Methylimino-3-methyl-5-phenyl-tetrahydro-1,3,5-thiadiazin-4-one] | 100 |  |  |  |  |  |  |  |  | 
29 | CC(C)N1C(=O)N(c2cccc(Cl)c2)CSC1=NC(C)(C)C [Compound 221, 2-t-Butylimino-3-isopropyl-5-(m-chlorophenyl)-tetrahydro-1,3,5-thiadiazin-4-one] |  |  | 100 |  | 100 | 100 | 100 | 100 |  | 90
30 | Cc1ccccc1N1CSC(=NC(C)(C)C)N(C(C)C)C1=O [Compound 302] |  |  | 100 |  | 100 | 100 | 100 | 70 |  | 80
31 | COc1ccc(N2CSC(=NC(C)(C)C)N(C(C)C)C2=O)cc1 [Compound 353, 2-t-Butylimino-3-isopropyl-5-(p-methoxyphenyl)tetrahydro-1,3,5-thiadiazin-4-one] |  |  | 100 |  | 100 | 100 | 100 | 100 |  | 100
32 | CCC(C)N1C(=O)N(c2cccc(C)c2)CSC1=NC(C)(C)C (centres unmarked) [Compound 328] |  |  | 100 |  | 100 | 100 | 90 | 100 |  | 100
